From PubChem BioAssay AID2060340 (Molecular Pharmacology Branch, DTP, NCI, 2025)
Several values for one entry are separate records, joined by “and”; a condition that tells them apart may be missing. Equal entries are not always repeated.

Test system: 349418-098-R-PDC spheroids, viability, % test/control
Assay: Anticancer human tumor 349418-098-R-PDC patient-derived lung adenocarcinoma cell line growth inhibition [IpAb]
Conditions: spheroids with HUVEC and MSC; for viability, T/C: stronger effect = lower value
Procedure, shortened: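 Multi-cell spheroids of 60% tumour cells, 25% HUVEC and 15% MSC in ultra-low-attachment U-bottom wells, treated with agents combined with ipatasertib or abemaciclib. Half-log ranges top out near clinical Cmax, or 10 microM when Cmax is unknown.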

[1] = curve of first compound, second compound 0.01 µM
[2] = curve of first compound, second compound 0.0316 µM
[3] = curve of first compound, second compound 0.1 µM
[4] = curve of first compound, second compound 0.316 µM
[5] = curve of first compound, second compound 1 µM
[6] = second compound 0.01 µM, first compound 0.0316 µM
[7] = second compound 0.01 µM, first compound 0.1 µM
[8] = second compound 0.01 µM, first compound 0.316 µM
[9] = second compound 0.01 µM, first compound 1 µM
[10] = second compound 0.01 µM, first compound 3.16 µM
[11] = second compound 0.01 µM, first compound 10 µM
[12] = second compound 0.0316 µM, first compound 0.0316 µM
[13] = second compound 0.0316 µM, first compound 0.1 µM
[14] = second compound 0.0316 µM, first compound 0.316 µM
[15] = second compound 0.0316 µM, first compound 1 µM
[16] = second compound 0.0316 µM, first compound 3.16 µM
[17] = second compound 0.0316 µM, first compound 10 µM
[18] = second compound 0.1 µM, first compound 0.0316 µM
[19] = second compound 0.1 µM, first compound 0.1 µM
[20] = second compound 0.1 µM, first compound 0.316 µM
[21] = second compound 0.1 µM, first compound 1 µM
[22] = second compound 0.1 µM, first compound 3.16 µM
[23] = second compound 0.1 µM, first compound 10 µM
[24] = second compound 0.316 µM, first compound 0.0316 µM
[25] = second compound 0.316 µM, first compound 0.1 µM
[26] = second compound 0.316 µM, first compound 0.316 µM
[27] = second compound 0.316 µM, first compound 1 µM
[28] = second compound 0.316 µM, first compound 3.16 µM
[29] = second compound 0.316 µM, first compound 10 µM
[30] = second compound 1 µM, first compound 0.0316 µM
[31] = second compound 1 µM, first compound 0.1 µM
[32] = second compound 1 µM, first compound 0.316 µM
[33] = second compound 1 µM, first compound 1 µM
[34] = second compound 1 µM, first compound 3.16 µM
[35] = second compound 1 µM, first compound 10 µM
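Note: spheroids exposed to compounds for 7 days.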

## CC1(C)CCC(CN2CCN(c3ccc(C(=O)NS(=O)(=O)c4ccc(NCC5CCOCC5)c([N+](=O)[O-])c4)c(Oc4cnc5[nH]ccc5c4)c3)CC2)=C(c2ccc(Cl)cc2)C1 + CCN1CCN(Cc2ccc(Nc3ncc(F)c(-c4cc(F)c5nc(C)n(C(C)C)c5c4)n3)nc2)CC1
[1]
  IC50: 1810 nM
[2]
  IC50: 1640 nM
[3]
  IC50: < 31.6 nM
[4]
  IC50: < 31.6 nM
[5]
  IC50: < 31.6 nM
[6]
  viability, T/C: 102%
[7]
  viability, T/C: 75%
[8]
  viability, T/C: 68.5%
[9]
  viability, T/C: 67.8%
[10]
  viability, T/C: 42.9%
[11]
  viability, T/C: 6.47%
[12]
  viability, T/C: 60.8%
[13]
  viability, T/C: 56.1%
[14]
  viability, T/C: 52.5%
[15]
  viability, T/C: 55.4%
[16]
  viability, T/C: 44.1%
[17]
  viability, T/C: 6.96%
[18]
  viability, T/C: 29.8%
[19]
  viability, T/C: 32.8%
[20]
  viability, T/C: 29%
[21]
  viability, T/C: 26.3%
[22]
  viability, T/C: 24.2%
[23]
  viability, T/C: 6.59%
[24]
  viability, T/C: 20.6%
[25]
  viability, T/C: 19.6%
[26]
  viability, T/C: 21.5%
[27]
  viability, T/C: 18.6%
[28]
  viability, T/C: 20.6%
[29]
  viability, T/C: 4.86%
[30]
  viability, T/C: 16.7%
[31]
  viability, T/C: 18.6%
[32]
  viability, T/C: 16%
[33]
  viability, T/C: 17.9%
[34]
  viability, T/C: 17%
[35]
  viability, T/C: 4.09%

## CC(C)n1nc(-c2ccc3oc(N)nc3c2)c2c(N)ncnc21
Compound 0.000316 µM
  viability, T/C: 93.8% and 89.8%
Compound 0.001 µM
  viability, T/C: 72.9% and 60.3%
Compound 0.00316 µM
  viability, T/C: 24.7% and 26.2%
Compound 0.01 µM
  viability, T/C: 11% and 10.4%
Compound 0.0316 µM
  viability, T/C: 8.02% and 7.35%
Compound 0.1 µM
  viability, T/C: 7.57% and 6.78%
Curve of compound
  IC50: 1.73 nM and 1.42 nM

## Cn1cnc2c(F)c(Nc3ccc(Br)cc3Cl)c(C(=O)NOCCO)cc21
Compound 0.00949 µM
  viability, T/C: 54.9% and 51.1%
Compound 0.03 µM
  viability, T/C: 47.6% and 37.5%
Compound 0.0949 µM
  viability, T/C: 49.2% and 43%
Compound 0.3 µM
  viability, T/C: 58.2% and 42.2%
Compound 0.949 µM
  viability, T/C: 37.5% and 27.2%
Compound 3 µM
  viability, T/C: 12.6% and 11.1%

## Cn1ncc(Cl)c1-c1cc(C(=O)NC(CN)Cc2cccc(F)c2)sc1Cl (stereo not given) + CCN1CCN(Cc2ccc(Nc3ncc(F)c(-c4cc(F)c5nc(C)n(C(C)C)c5c4)n3)nc2)CC1
[1]
  IC50: 49.8 nM
[2]
  IC50: < 31.6 nM
[3]
  IC50: < 31.6 nM
[4]
  IC50: < 31.6 nM
[5]
  IC50: < 31.6 nM
[6]
  viability, T/C: 63.1%
[7]
  viability, T/C: 28.6%
[8]
  viability, T/C: 17.1%
[9]
  viability, T/C: 9.53%
[10]
  viability, T/C: 6.15%
[11]
  viability, T/C: 0.1%
[12]
  viability, T/C: 36.9%
[13]
  viability, T/C: 18.1%
[14]
  viability, T/C: 9.18%
[15]
  viability, T/C: 7.63%
[16]
  viability, T/C: 5.83%
[17]
  viability, T/C: 0.14%
[18]
  viability, T/C: 21.3%
[19]
  viability, T/C: 12.5%
[20]
  viability, T/C: 8.7%
[21]
  viability, T/C: 6.91%
[22]
  viability, T/C: 5.88%
[23]
  viability, T/C: 0.09%
[24]
  viability, T/C: 16%
[25]
  viability, T/C: 12.5%
[26]
  viability, T/C: 8.98%
[27]
  viability, T/C: 6.46%
[28]
  viability, T/C: 4.96%
[29]
  viability, T/C: 0.19%
[30]
  viability, T/C: 14%
[31]
  viability, T/C: 11.7%
[32]
  viability, T/C: 9.07%
[33]
  viability, T/C: 8.54%
[34]
  viability, T/C: 3.59%
[35]
  viability, T/C: 0.24%

## CC1(C)CCC(CN2CCN(c3ccc(C(=O)NS(=O)(=O)c4ccc(NCC5CCOCC5)c([N+](=O)[O-])c4)c(Oc4cnc5[nH]ccc5c4)c3)CC2)=C(c2ccc(Cl)cc2)C1
Compound 0.0316 µM
  viability, T/C: 110% and 115%
Compound 0.1 µM
  viability, T/C: 109% and 94.8%
Compound 0.316 µM
  viability, T/C: 107% and 101%
Compound 1 µM
  viability, T/C: 103% and 106%
Compound 3.16 µM
  viability, T/C: 82.2% and 92.3%
Compound 10 µM
  viability, T/C: 6.95% and 3.46%
Curve of compound
  IC50: 5170 nM and 5470 nM

## Cn1nccc1Nc1nccc(-c2ccn(C(CO)c3ccc(Cl)c(F)c3)c(=O)c2)n1 (stereo not given) + CC(C)NCC(C(=O)N1CCN(c2ncnc3c2C(C)CC3O)CC1)c1ccc(Cl)cc1
[3]
  IC50: < 31.6 nM
[4]
  IC50: < 31.6 nM
[5]
  IC50: < 31.6 nM
Curve of first compound, second compound 3.16 µM
  IC50: < 31.6 nM
Curve of first compound, second compound 10 µM
  IC50: < 31.6 nM
[18]
  viability, T/C: 43.3%
[19]
  viability, T/C: 35.9%
[20]
  viability, T/C: 33%
[21]
  viability, T/C: 29.7%
[22]
  viability, T/C: 21.5%
[23]
  viability, T/C: 17.9%
[24]
  viability, T/C: 23.7%
[25]
  viability, T/C: 20.2%
[26]
  viability, T/C: 17.9%
[27]
  viability, T/C: 16%
[28]
  viability, T/C: 16%
[29]
  viability, T/C: 14.6%
[30]
  viability, T/C: 10.3%
[31]
  viability, T/C: 10.8%
[32]
  viability, T/C: 8.91%
[33]
  viability, T/C: 10.4%
[34]
  viability, T/C: 11.8%
[35]
  viability, T/C: 11%
Second compound 3.16 µM, first compound 0.0316 µM
  viability, T/C: 7.69%
Second compound 3.16 µM, first compound 0.1 µM
  viability, T/C: 7.5%
Second compound 3.16 µM, first compound 0.316 µM
  viability, T/C: 6.61%
Second compound 3.16 µM, first compound 1 µM
  viability, T/C: 7%
Second compound 3.16 µM, first compound 3.16 µM
  viability, T/C: 7.85%
Second compound 3.16 µM, first compound 10 µM
  viability, T/C: 8.65%
Second compound 10 µM, first compound 0.0316 µM
  viability, T/C: 5.18%
Second compound 10 µM, first compound 0.1 µM
  viability, T/C: 5.1%
Second compound 10 µM, first compound 0.316 µM
  viability, T/C: 4.68%
Second compound 10 µM, first compound 1 µM
  viability, T/C: 4.43%
Second compound 10 µM, first compound 3.16 µM
  viability, T/C: 5.74%
Second compound 10 µM, first compound 10 µM
  viability, T/C: 7%

## C=CC(=O)N1CCN(c2nc(=O)n(-c3c(C)ccnc3C(C)C)c3nc(-c4c(O)cccc4F)c(F)cc23)C(C)C1 (stereo not given) + CCN1CCN(Cc2ccc(Nc3ncc(F)c(-c4cc(F)c5nc(C)n(C(C)C)c5c4)n3)nc2)CC1
[1]
  IC50: 4630 nM
[2]
  IC50: 124 nM
[3]
  IC50: < 31.6 nM
[4]
  IC50: < 31.6 nM
[5]
  IC50: < 31.6 nM
[6]
  viability, T/C: 90.2%
[7]
  viability, T/C: 82.9%
[8]
  viability, T/C: 82.8%
[9]
  viability, T/C: 87.1%
[10]
  viability, T/C: 57.2%
[11]
  viability, T/C: 35.5%
[12]
  viability, T/C: 58.9%
[13]
  viability, T/C: 47.8%
[14]
  viability, T/C: 43.2%
[15]
  viability, T/C: 41.2%
[16]
  viability, T/C: 35.1%
[17]
  viability, T/C: 20.5%
[18]
  viability, T/C: 33.9%
[19]
  viability, T/C: 28.7%
[20]
  viability, T/C: 31.4%
[21]
  viability, T/C: 29.6%
[22]
  viability, T/C: 23.3%
[23]
  viability, T/C: 13.2%
[24]
  viability, T/C: 19.7%
[25]
  viability, T/C: 22%
[26]
  viability, T/C: 22.1%
[27]
  viability, T/C: 21.2%
[28]
  viability, T/C: 18.1%
[29]
  viability, T/C: 14.1%
[30]
  viability, T/C: 19.3%
[31]
  viability, T/C: 21.5%
[32]
  viability, T/C: 20.9%
[33]
  viability, T/C: 16%
[34]
  viability, T/C: 19.2%
[35]
  viability, T/C: 10.9%
